According to ChEMBL document CHEMBL5463725, “Data for DCP probe BAY-277” (2023):
Active and inactive are the calls of the source. The calls are words filed in the database; no cut-off is given here.

How the values were obtained:
[1] = molecular target: Tyrosine-protein kinase Lck (Homo sapiens) (UniProt P06239); assay: Inhibition of Lck(h) activated at 10.0 µM in the Eurofins Kinase panel; conditions: Compound concentration 10.0 uM
[2] = molecular target: Testis-specific serine/threonine-protein kinase 4 (Homo sapiens) (UniProt Q6SA08); assay: Inhibition of TSSK4(h) at 10.0 µM in the Eurofins Kinase panel; conditions: Compound concentration 10.0 uM
[3] = molecular target: Sodium- and chloride-dependent GABA transporter 1 (Rattus norvegicus) (UniProt P23978); assay: (§1) Inhibition of Transporter, GABA at 10.0 µM in the Eurofins Panlabs Safety Screen; conditions: Compound concentration 10.0 uM
[4] = molecular target: Tyrosine-protein kinase Mer (Homo sapiens) (UniProt Q12866); assay: Inhibition of Mer(h) at 10.0 µM in the Eurofins Kinase panel; conditions: Compound concentration 10.0 uM
[5] = molecular target: RAC-beta serine/threonine-protein kinase (Homo sapiens) (UniProt P31751); assay: Inhibition of PKBbeta(h) at 10.0 µM in the Eurofins Kinase panel; conditions: Compound concentration 10.0 uM
[6] = molecular target: [Pyruvate dehydrogenase (acetyl-transferring)] kinase isozyme 2, mitochondrial (Homo sapiens) (UniProt Q15119); assay: Inhibition of PDHK2(h) at 10.0 µM in the Eurofins Kinase panel; conditions: Compound concentration 10.0 uM
[7] = molecular target: Ribosomal protein S6 kinase beta-1 (Homo sapiens) (UniProt P23443); assay: Inhibition of p70S6K(h) at 10.0 µM in the Eurofins Kinase panel; conditions: Compound concentration 10.0 uM
[8] = molecular target: Serine/threonine-protein kinase 38-like (Homo sapiens) (UniProt Q9Y2H1); assay: Inhibition of NDR2(h) at 10.0 µM in the Eurofins Kinase panel; conditions: Compound concentration 10.0 uM
[9] = molecular target: Interferon-induced, double-stranded RNA-activated protein kinase (Homo sapiens) (UniProt P19525); assay: Inhibition of PKR(h) at 10.0 µM in the Eurofins Kinase panel; conditions: Compound concentration 10.0 uM
[10] = molecular target: Cyclin-dependent kinase-like 2 (Homo sapiens) (UniProt Q92772); assay: Inhibition of CDKL2(h) at 10.0 µM in the Eurofins Kinase panel; conditions: Compound concentration 10.0 uM
[11] = molecular target: PAS domain-containing serine/threonine-protein kinase (Homo sapiens) (UniProt Q96RG2); assay: Inhibition of PASK(h) at 10.0 µM in the Eurofins Kinase panel; conditions: Compound concentration 10.0 uM
[12] = molecular target: Serine/threonine-protein kinase ICK (Homo sapiens) (UniProt Q9UPZ9); assay: Inhibition of ICK(h) at 10.0 µM in the Eurofins Kinase panel; conditions: Compound concentration 10.0 uM
[13] = molecular target: Serine/threonine-protein kinase DCLK2 (Homo sapiens) (UniProt Q8N568); assay: Inhibition of DCAMKL2(h) at 10.0 µM in the Eurofins Kinase panel; conditions: Compound concentration 10.0 uM
[14] = molecular target: MAP kinase-activated protein kinase 3 (Homo sapiens) (UniProt Q16644); assay: Inhibition of MAPKAP-K3(h) at 10.0 µM in the Eurofins Kinase panel; conditions: Compound concentration 10.0 uM
[15] = molecular target: Glutamate NMDA receptor (Rattus norvegicus) (UniProt P35439+Q00959+Q00960+Q00961+Q62645+Q8VHN2+Q9R1M7); assay: Inhibition of Glutamate, NMDA, Glycine at 10.0 µM in the Eurofins Panlabs Safety Screen; format: protein-complex assay; conditions: Compound concentration 10.0 uM
[16] = molecular target: Mitogen-activated protein kinase kinase kinase 21 (Homo sapiens) (UniProt Q5TCX8); assay: Inhibition of MLK4(h) at 10.0 µM in the Eurofins Kinase panel; conditions: Compound concentration 10.0 uM
[17] = molecular target: Tribbles homolog 2 (Homo sapiens) (UniProt Q92519); assay: Inhibition of TRB2(h) at 10.0 µM in the Eurofins Kinase panel; conditions: Compound concentration 10.0 uM
[18] = molecular target: Serine/threonine-protein kinase Nek1 (Homo sapiens) (UniProt Q96PY6); assay: Inhibition of NEK1(h) at 10.0 µM in the Eurofins Kinase panel; conditions: Compound concentration 10.0 uM
[19] = molecular target: Casein kinase II subunit alpha' (Homo sapiens) (UniProt P19784); assay: Inhibition of CK2alpha2(h) at 10.0 µM in the Eurofins Kinase panel; conditions: Compound concentration 10.0 uM
[20] = molecular target: Protein kinase C gamma type (Homo sapiens) (UniProt P05129); assay: Inhibition of PKCgamma(h) at 10.0 µM in the Eurofins Kinase panel; conditions: Compound concentration 10.0 uM
[21] = molecular target: Serine/threonine-protein kinase Sgk3 (Homo sapiens) (UniProt Q96BR1); assay: Inhibition of SGK3(h) at 10.0 µM in the Eurofins Kinase panel; conditions: Compound concentration 10.0 uM
[22] = molecular target: SRSF protein kinase 3 (Homo sapiens) (UniProt Q9UPE1); assay: Inhibition of MSSK1(h) at 10.0 µM in the Eurofins Kinase panel; conditions: Compound concentration 10.0 uM
[23] = molecular target: Megakaryocyte-associated tyrosine-protein kinase (Homo sapiens) (UniProt P42679); assay: Inhibition of MATK(h) at 10.0 µM in the Eurofins Kinase panel; conditions: Compound concentration 10.0 uM
[24] = molecular target: T1, Methionine aminopeptidase 2 (Homo sapiens, UniProt P50579); assay: Degradation in HT1080 cells (CE) Dmax (Capillary electrophoresis (CE)); format: functional, cell-based; conditions: HT-1080
[25] = molecular target: Calcium/calmodulin-dependent protein kinase type 1D (Homo sapiens) (UniProt Q8IU85); assay: Inhibition of CaMKIdelta(h) at 10.0 µM in the Eurofins Kinase panel; conditions: Compound concentration 10.0 uM
[26] = molecular target: Mitogen-activated protein kinase kinase kinase kinase 2 MAP4K2 (Homo sapiens) (UniProt Q12851); assay: Inhibition of GCK at 10.0 µM in the Eurofins Kinase panel; conditions: Compound concentration 10.0 uM
[27] = molecular target: GABA transporter (Rattus norvegicus) (UniProt P31647+P23978+P31646+P48056); assay: as §1; format: protein assay; conditions: Compound concentration 10.0 uM
[28] = tested on: Arachidonate 15-lipoxygenase B ALOX15B (Homo sapiens); assay: Inhibition of Lipoxygenase 15-LOX-2 at 10.0 µM in the Eurofins Panlabs Safety Screen; conditions: Compound concentration 10.0 uM
[29] = molecular target: Beta-1 adrenergic receptor (Homo sapiens) (UniProt P08588); conditions: Compound concentration 10.0 uM
[30] = molecular target: Muscarinic acetylcholine receptor M5 (Homo sapiens, UniProt P08912); assay: GPCRScan assay: inhibition of M5; set-up: radioligand conc. used [nm] 0.2 – 1.0, parental cells stable CHO
[31] = molecular target: T1, Methionine aminopeptidase 2; assay: Degradation in HUVEC cells (WB) Dmax (Western Blot (WB)); format: functional, cell-based
[32] = molecular target: Serine/threonine-protein kinase tousled-like 1 (Homo sapiens) (UniProt Q9UKI8); assay: Inhibition of TLK1(h) at 10.0 µM in the Eurofins Kinase panel; conditions: Compound concentration 10.0 uM
[33] = molecular target: Cannabinoid receptor 1 (Homo sapiens) (UniProt P21554); assay: Inhibition of Cannabinoid CB1 at 10.0 µM in the Eurofins Panlabs Safety Screen; conditions: Compound concentration 10.0 uM
[34] = molecular target: Serine/threonine-protein kinase Sgk2 (Homo sapiens) (UniProt Q9HBY8); assay: Inhibition of SGK2(h) at 10.0 µM in the Eurofins Kinase panel; conditions: Compound concentration 10.0 uM
[35] = molecular target: eIF-2-alpha kinase GCN2 (Homo sapiens) (UniProt Q9P2K8); assay: Inhibition of GCN2(h) at 10.0 µM in the Eurofins Kinase panel; conditions: Compound concentration 10.0 uM
[36] = molecular target: Tyrosine-protein kinase Yes (Homo sapiens) (UniProt P07947); assay: Inhibition of Yes(h) at 10.0 µM in the Eurofins Kinase panel; conditions: Compound concentration 10.0 uM
[37] = molecular target: 3-hydroxy-3-methylglutaryl-coenzyme A reductase (Homo sapiens) (UniProt P04035); assay: Inhibition of HMG-CoA Reductase at 10.0 µM in the Eurofins Panlabs Safety Screen; conditions: Compound concentration 10.0 uM
[38] = molecular target: Methionine aminopeptidase 2 (Mus musculus, UniProt O08663); assay: METAP2 biochemical assay (mouse)

Chain of Muscarinic acetylcholine receptor M5 (P08912 whole entry): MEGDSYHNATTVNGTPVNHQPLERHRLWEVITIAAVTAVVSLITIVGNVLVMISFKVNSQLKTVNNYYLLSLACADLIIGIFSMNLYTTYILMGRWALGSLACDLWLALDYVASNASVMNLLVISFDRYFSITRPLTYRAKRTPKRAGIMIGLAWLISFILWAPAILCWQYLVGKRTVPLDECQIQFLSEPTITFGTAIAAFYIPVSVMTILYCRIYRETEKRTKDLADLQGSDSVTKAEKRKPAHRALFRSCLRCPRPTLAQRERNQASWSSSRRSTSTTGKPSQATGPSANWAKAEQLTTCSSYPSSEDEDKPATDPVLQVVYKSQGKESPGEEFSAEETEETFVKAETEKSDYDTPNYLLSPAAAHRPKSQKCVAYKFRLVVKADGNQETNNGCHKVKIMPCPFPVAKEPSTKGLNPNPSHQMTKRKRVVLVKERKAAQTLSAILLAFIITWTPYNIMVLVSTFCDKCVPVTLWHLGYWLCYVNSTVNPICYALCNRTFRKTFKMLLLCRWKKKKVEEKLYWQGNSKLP
T1 sequence (P50579 2-478 limits assumed): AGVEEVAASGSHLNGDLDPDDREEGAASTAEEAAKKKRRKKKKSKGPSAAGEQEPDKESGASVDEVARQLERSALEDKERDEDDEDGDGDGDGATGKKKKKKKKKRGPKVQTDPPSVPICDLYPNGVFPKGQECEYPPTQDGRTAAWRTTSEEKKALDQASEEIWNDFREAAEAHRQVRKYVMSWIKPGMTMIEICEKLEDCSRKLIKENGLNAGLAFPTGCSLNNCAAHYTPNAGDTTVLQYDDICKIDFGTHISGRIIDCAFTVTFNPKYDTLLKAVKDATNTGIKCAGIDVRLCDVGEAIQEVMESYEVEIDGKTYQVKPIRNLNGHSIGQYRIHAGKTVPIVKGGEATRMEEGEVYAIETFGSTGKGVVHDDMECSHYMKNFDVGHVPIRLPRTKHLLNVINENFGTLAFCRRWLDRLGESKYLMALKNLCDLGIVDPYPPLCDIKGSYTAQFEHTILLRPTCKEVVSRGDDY
Chain of Beta-1 adrenergic receptor (Homo sapiens) (P08588 whole entry, looked up): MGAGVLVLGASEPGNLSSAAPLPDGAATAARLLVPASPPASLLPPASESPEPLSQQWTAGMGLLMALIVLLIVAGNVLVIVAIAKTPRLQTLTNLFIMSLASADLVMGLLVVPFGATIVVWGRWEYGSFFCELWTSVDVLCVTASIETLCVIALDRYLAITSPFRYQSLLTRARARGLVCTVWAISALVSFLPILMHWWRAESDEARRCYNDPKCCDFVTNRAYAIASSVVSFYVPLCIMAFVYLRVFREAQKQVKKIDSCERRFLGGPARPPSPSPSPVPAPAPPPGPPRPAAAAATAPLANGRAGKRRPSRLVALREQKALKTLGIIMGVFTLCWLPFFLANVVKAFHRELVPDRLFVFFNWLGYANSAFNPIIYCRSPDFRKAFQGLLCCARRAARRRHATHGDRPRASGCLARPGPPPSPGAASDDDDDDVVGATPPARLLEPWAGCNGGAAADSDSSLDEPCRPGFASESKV
Chain of 3-hydroxy-3-methylglutaryl-coenzyme A reductase (Homo sapiens) (P04035 whole entry): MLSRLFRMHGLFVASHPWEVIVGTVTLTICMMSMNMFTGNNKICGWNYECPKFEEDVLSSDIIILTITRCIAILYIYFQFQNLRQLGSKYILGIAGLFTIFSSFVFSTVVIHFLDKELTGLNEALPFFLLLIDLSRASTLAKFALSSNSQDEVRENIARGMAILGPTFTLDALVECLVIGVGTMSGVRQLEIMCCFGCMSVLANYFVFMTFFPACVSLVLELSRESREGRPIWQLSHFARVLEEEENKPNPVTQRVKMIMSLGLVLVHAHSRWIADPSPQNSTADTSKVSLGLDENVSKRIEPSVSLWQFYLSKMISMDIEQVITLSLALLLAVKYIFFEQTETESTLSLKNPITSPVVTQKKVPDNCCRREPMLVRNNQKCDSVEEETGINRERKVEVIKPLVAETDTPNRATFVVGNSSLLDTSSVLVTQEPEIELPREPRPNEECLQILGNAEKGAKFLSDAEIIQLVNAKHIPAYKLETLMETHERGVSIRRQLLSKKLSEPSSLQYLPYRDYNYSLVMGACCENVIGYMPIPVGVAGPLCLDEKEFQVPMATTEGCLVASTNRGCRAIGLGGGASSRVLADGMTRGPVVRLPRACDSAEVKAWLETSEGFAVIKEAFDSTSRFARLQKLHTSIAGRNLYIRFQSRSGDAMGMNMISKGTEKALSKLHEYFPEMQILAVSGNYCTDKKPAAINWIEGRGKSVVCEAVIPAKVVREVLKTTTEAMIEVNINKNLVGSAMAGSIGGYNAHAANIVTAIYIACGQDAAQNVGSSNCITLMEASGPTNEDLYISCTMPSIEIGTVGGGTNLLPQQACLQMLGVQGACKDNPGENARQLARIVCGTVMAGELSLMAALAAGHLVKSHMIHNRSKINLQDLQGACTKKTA
Chain of Mitogen-activated protein kinase kinase kinase kinase 2 MAP4K2 (Homo sapiens) (Q12851 whole entry, looked up): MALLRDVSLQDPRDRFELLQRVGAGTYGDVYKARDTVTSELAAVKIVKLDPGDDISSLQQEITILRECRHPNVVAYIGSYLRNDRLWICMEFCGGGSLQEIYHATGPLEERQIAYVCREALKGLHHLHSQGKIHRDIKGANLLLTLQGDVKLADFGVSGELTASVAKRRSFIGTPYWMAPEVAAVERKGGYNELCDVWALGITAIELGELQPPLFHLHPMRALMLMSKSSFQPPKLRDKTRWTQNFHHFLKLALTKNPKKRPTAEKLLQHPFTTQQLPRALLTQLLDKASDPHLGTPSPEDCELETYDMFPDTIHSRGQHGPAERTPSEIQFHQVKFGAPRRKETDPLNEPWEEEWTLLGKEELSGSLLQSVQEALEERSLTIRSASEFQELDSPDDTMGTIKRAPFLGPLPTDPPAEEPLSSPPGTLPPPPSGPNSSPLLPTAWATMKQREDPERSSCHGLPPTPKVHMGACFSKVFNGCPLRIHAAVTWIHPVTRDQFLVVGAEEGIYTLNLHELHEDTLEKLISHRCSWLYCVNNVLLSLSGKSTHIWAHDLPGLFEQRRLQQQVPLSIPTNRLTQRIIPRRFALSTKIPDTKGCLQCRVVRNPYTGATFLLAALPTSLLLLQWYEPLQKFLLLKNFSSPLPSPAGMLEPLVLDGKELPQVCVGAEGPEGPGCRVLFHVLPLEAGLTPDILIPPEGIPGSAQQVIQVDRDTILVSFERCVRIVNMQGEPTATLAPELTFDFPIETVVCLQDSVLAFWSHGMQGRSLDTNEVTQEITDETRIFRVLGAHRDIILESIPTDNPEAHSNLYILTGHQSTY
Chain of Serine/threonine-protein kinase Nek1 (Homo sapiens) (Q96PY6 whole entry): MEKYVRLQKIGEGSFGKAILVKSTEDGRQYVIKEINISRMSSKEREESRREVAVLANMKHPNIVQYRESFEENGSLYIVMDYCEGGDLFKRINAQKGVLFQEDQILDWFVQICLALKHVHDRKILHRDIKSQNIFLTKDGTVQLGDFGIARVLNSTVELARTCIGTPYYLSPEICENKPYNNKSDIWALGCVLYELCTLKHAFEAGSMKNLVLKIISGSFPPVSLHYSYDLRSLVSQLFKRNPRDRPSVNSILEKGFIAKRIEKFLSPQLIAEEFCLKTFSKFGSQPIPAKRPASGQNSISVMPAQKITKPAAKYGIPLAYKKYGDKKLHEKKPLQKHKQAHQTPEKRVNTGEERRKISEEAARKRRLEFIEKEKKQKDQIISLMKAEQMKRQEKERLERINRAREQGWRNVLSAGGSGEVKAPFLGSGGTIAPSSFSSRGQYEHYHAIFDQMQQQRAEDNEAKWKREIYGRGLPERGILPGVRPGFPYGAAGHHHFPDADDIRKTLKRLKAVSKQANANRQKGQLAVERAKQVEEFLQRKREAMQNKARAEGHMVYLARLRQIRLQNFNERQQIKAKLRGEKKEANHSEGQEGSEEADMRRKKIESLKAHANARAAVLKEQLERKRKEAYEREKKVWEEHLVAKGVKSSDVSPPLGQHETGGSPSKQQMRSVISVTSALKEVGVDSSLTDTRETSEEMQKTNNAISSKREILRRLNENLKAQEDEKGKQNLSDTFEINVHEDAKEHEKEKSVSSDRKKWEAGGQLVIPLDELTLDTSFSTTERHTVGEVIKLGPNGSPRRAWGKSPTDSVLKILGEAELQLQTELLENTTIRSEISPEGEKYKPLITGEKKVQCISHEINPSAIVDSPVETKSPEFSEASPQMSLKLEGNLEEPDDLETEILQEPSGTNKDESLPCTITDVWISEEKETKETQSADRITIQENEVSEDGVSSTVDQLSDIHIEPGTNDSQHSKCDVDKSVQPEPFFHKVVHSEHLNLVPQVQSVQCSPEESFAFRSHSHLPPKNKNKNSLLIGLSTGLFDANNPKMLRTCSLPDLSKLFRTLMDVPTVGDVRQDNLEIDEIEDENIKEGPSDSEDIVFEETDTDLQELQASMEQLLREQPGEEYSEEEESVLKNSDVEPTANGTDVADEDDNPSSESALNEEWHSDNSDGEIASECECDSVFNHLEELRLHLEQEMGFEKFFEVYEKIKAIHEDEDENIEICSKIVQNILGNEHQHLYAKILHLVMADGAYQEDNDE
Chain of Megakaryocyte-associated tyrosine-protein kinase (Homo sapiens) (P42679 whole entry): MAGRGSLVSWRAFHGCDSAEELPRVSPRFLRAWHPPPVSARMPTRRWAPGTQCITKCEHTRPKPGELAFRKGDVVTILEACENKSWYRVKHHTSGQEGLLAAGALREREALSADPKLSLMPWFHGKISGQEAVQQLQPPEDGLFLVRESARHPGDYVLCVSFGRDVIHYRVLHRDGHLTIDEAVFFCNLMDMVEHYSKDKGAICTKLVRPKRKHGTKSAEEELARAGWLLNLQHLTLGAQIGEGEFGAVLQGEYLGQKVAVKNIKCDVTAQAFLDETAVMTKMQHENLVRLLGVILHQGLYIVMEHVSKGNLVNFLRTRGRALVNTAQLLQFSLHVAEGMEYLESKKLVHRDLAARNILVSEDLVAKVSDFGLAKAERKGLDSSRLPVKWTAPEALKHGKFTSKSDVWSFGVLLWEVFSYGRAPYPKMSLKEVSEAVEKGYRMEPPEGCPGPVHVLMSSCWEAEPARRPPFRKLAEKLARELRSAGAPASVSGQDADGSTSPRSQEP

Work on O=C1NCCCC1N1Cc2cc(C3CCN(C(=O)CCCCCN4CCC(c5ccc(Oc6nn7cnnc7c7c6CCCC7)cc5)CC4)CC3)ccc2C1=O (centres undefined) yielded an inhibition [1] of 13.3%, an inhibition [2] of 10.8% and an inhibition [3] of 8%. For the same compound, the inhibition [4] was 17.9%, the inhibition [5] was 14.1% and the inhibition [6] was 18.6%. For the same compound, the inhibition [7] was 10.2%, the inhibition [8] was 14.4% and the inhibition [9] was 10.3%. For the same compound, the inhibition [10] was 17.6%, the inhibition [11] was 23.9% and the inhibition [12] was 10.1%. For the same compound, the inhibition [13] was 12%, the inhibition [14] was 11.4% and the inhibition [15] was -6%. For the same compound, the inhibition [16] was 10.7%, the inhibition [17] was 10.9% and the inhibition [18] was 11.4%. It also gave an inhibition [19] of 10.9%, an inhibition [20] of 10.9% and an inhibition [21] of 13.4%. The inhibition [22] was 12.1%.

O=C1CCC(N2Cc3cc(C4CCN(C(=O)CCCCCN5CCC(c6ccc(Oc7nn8cnnc8c8c7CCCC8)cc6)CC5)CC4)ccc3C2=O)C(=O)N1 (centres undefined) was tested, and the inhibition [23] was 19.7%, the Dmax [24] was 88.5% and the inhibition [25] was 11.4%. For the same compound, the inhibition [26] was 11.3%, the inhibition [27] was 5% and the inhibition [28] was -1%. It also gave an inhibition [29] of 0.81%, a Ki ([30]; read-out: Ki) of 0.568 µM and a Ki ([30]; read-out: pKi (converted)) of 0.562 µM. For the same compound, the DCmax [31] was 94%, the inhibition [32] was 12.3% and the inhibition [33] was 1%. The inhibition [34] was 16.5%, the inhibition [35] was 17.2% and the inhibition [36] was 10.9%. For the same compound, the inhibition [37] was 12% and the IC50 [38] was 0.0059 µM (active).
